The source made the active and inactive calls.
Legend:
UO-31 = test: Antiproliferative activity against human UO-31 cells assessed as inhibition of cell growth at 10 uM by SRB assay relative to control; format: functional
K562 = test: Antiproliferative activity against human K562 cells assessed as cell growth inhibition at 10 uM by SRB assay; format: functional, cell-based
RPMI-8226 = test: Antiproliferative activity against human RPMI-8226 cells assessed as cell growth inhibition at 10 uM by SRB assay; format: functional, cell-based
HOP-92 = test: Antiproliferative activity against human HOP-92 cells assessed as cell growth inhibition at 10 uM by SRB assay; format: functional, cell-based
NCI-H23 = test: Antiproliferative activity against human NCI-H23 cells assessed as cell growth inhibition at 10 uM by SRB assay; format: functional
EKVX = test: Antiproliferative activity against human EKVX cells assessed as cell growth inhibition at 10 uM by SRB assay; format: functional
Hs-578T = test: Antiproliferative activity against human Hs-578T cells assessed as inhibition of cell growth at 10 uM by SRB assay; format: functional, cell-based
NCI-H226 = test: Antiproliferative activity against human NCI-H226 cells assessed as cell growth inhibition at 10 uM by SRB assay; format: functional
HL-60 = test: Antiproliferative activity against human HL-60 cells assessed as cell growth inhibition at 10 uM by SRB assay; format: functional, cell-based
SR = test: Antiproliferative activity against human SR cells assessed as cell growth inhibition at 10 uM by SRB assay; format: functional, cell-based
CCRF-CEM = test: Antiproliferative activity against human CCRF-CEM cells assessed as cell growth inhibition at 10 uM by SRB assay; format: functional, cell-based
MOLT-4 = test: Antiproliferative activity against human MOLT-4 cells assessed as cell growth inhibition at 10 uM by SRB assay; format: functional, cell-based
SF-295 = test: Antiproliferative activity against human SF-295 cells assessed as cell growth inhibition at 10 uM by SRB assay; format: functional, cell-based
NCI-H522 = test: Antiproliferative activity against human NCI-H522 cells assessed as cell growth inhibition at 10 uM by SRB assay; format: functional, cell-based
SK-MEL-2 = test: Antiproliferative activity against human SK-MEL-2 cells assessed as cell growth inhibition at 10 uM by SRB assay relative to control; format: functional; details: Homo sapiens, SK-MEL-2, dose 10 µM
HOP-62 = test: Antiproliferative activity against human HOP-62 cells assessed as cell growth inhibition at 10 uM by SRB assay; format: functional, cell-based
NCI-H460 = test: Antiproliferative activity against human NCI-H460 cells assessed as cell growth inhibition at 10 uM by SRB assay; format: functional, cell-based
A549 = test: Antiproliferative activity against human A549 cells assessed as cell growth inhibition at 10 uM by SRB assay; format: functional, cell-based
NCI-H322M = test: Antiproliferative activity against human NCI-H322M cells assessed as cell growth inhibition at 10 uM by SRB assay; format: functional, cell-based
786-0 = test: Antiproliferative activity against human 786-0 cells assessed as inhibition of cell growth at 10 uM by SRB assay relative to control; format: functional
RXF 393 = test: Antiproliferative activity against human RXF 393 cells assessed as inhibition of cell growth at 10 uM by SRB assay relative to control; format: functional
UACC-257 = test: Antiproliferative activity against human UACC-257 cells assessed as cell growth inhibition at 10 uM by SRB assay relative to control; format: functional
UACC-62 = test: Antiproliferative activity against human UACC-62 cells assessed as cell growth inhibition at 10 uM by SRB assay relative to control; format: functional

COc1cc2oc(-c3ccc(NC(=O)c4cccc(C#N)c4)cc3)cc(=O)c2c(OC)c1OC
< 50%: inhibition at 10 µM (NCI-H23) | inhibition at 10 µM (EKVX) | inhibition at 10 µM (NCI-H226)
active: inhibition (UO-31) | inhibition (K562) | inhibition (RPMI-8226) | inhibition (HOP-92) | inhibition (Hs-578T) | inhibition (HL-60) | inhibition (SR) | inhibition (CCRF-CEM) | inhibition (MOLT-4) | inhibition (SF-295) | inhibition (NCI-H522)

COc1cc2oc(-c3cccc(NC(=O)c4ccc(C#N)cc4)c3)cc(=O)c2c(OC)c1OC
active: inhibition (UO-31) | inhibition (K562) | inhibition (RPMI-8226) | inhibition (HOP-92) | inhibition (HOP-62) | inhibition (NCI-H460) | inhibition (NCI-H23) | inhibition (EKVX) | inhibition (Hs-578T) | inhibition (NCI-H226) | inhibition (HL-60) | inhibition (SR) | inhibition (A549) | inhibition (CCRF-CEM) | inhibition (MOLT-4) | inhibition (SF-295) | inhibition (NCI-H522) | inhibition (NCI-H322M)
≤ 46%: inhibition at 10 µM (SK-MEL-2)
< 50%: inhibition at 10 µM (NCI-H23) | inhibition at 10 µM (EKVX) | inhibition at 10 µM (NCI-H226)

COC(=O)c1ccc(C(=O)Nc2ccc(-c3cc(=O)c4c(OC)c(OC)c(OC)cc4o3)cc2)cc1
active: inhibition (UO-31) | inhibition (HOP-92) | inhibition (Hs-578T) | inhibition (SF-295) | inhibition (NCI-H522)
< 50%: inhibition at 10 µM (NCI-H23) | inhibition at 10 µM (EKVX) | inhibition at 10 µM (NCI-H226)

CNC(=O)c1cc(Oc2ccc(NC(=O)Nc3ccc(Cl)c(C(F)(F)F)c3)cc2)ccn1 [SORAFENIB]
84.5%: inhibition at 10 µM (786-0)

COc1cc2oc(-c3cccc(C(=O)Nc4ccc(Br)cc4)c3)cc(=O)c2c(OC)c1OC
active: inhibition (K562) | inhibition (RPMI-8226) | inhibition (HOP-92) | inhibition (HOP-62) | inhibition (NCI-H460) | inhibition (NCI-H23) | inhibition (EKVX) | inhibition (NCI-H226) | inhibition (HL-60) | inhibition (SR) | inhibition (A549) | inhibition (CCRF-CEM) | inhibition (MOLT-4) | inhibition (NCI-H522) | inhibition (RXF 393) | inhibition (NCI-H322M)

COc1cc2oc(-c3cccc(C(=O)Nc4ccc(C#N)cc4)c3)cc(=O)c2c(OC)c1OC
active: inhibition (HOP-92) | inhibition (HOP-62) | inhibition (NCI-H460) | inhibition (NCI-H23) | inhibition (EKVX) | inhibition (NCI-H226) | inhibition (A549) | inhibition (NCI-H522) | inhibition (NCI-H322M)

COc1cc2oc(-c3ccc(NC(=O)c4cccc(Br)c4)cc3)cc(=O)c2c(OC)c1OC
< 50%: inhibition at 10 µM (NCI-H23) | inhibition at 10 µM (EKVX) | inhibition at 10 µM (NCI-H226)
active: inhibition (UO-31) | inhibition (K562) | inhibition (RPMI-8226) | inhibition (HOP-92) | inhibition (Hs-578T) | inhibition (HL-60) | inhibition (SR) | inhibition (CCRF-CEM) | inhibition (MOLT-4) | inhibition (SF-295) | inhibition (NCI-H522)

COc1cc2oc(-c3cccc(NC(=O)c4ccc(C)cc4)c3)cc(=O)c2c(OC)c1OC
active: inhibition (UO-31) | inhibition (K562) | inhibition (RPMI-8226) | inhibition (HOP-92) | inhibition (Hs-578T) | inhibition (HL-60) | inhibition (SR) | inhibition (CCRF-CEM) | inhibition (MOLT-4) | inhibition (SF-295) | inhibition (NCI-H522)
56.1%: inhibition at 10 µM (UACC-257)
50.8%: inhibition at 10 µM (UACC-62)
< 50%: inhibition at 10 µM (NCI-H23) | inhibition at 10 µM (EKVX) | inhibition at 10 µM (NCI-H226)
≤ 46%: inhibition at 10 µM (SK-MEL-2)

COc1cc2oc(-c3ccc(NC(=O)c4ccc(Br)cc4)cc3)cc(=O)c2c(OC)c1OC
active: inhibition (UO-31) | inhibition (HOP-92) | inhibition (Hs-578T) | inhibition (SF-295) | inhibition (NCI-H522)
< 50%: inhibition at 10 µM (NCI-H23) | inhibition at 10 µM (EKVX) | inhibition at 10 µM (NCI-H226)
inactive: inhibition (K562) | inhibition (RPMI-8226) | inhibition (HL-60) | inhibition (SR) | inhibition (CCRF-CEM) | inhibition (MOLT-4)

COc1cc2oc(-c3cccc(NC(=O)c4ccccc4Br)c3)cc(=O)c2c(OC)c1OC
active: inhibition (UO-31) | inhibition (K562) | inhibition (RPMI-8226) | inhibition (HOP-92) | inhibition (Hs-578T) | inhibition (HL-60) | inhibition (SR) | inhibition (CCRF-CEM) | inhibition (MOLT-4) | inhibition (SF-295) | inhibition (NCI-H522)
< 50%: inhibition at 10 µM (NCI-H23) | inhibition at 10 µM (EKVX) | inhibition at 10 µM (NCI-H226)
≤ 46%: inhibition at 10 µM (SK-MEL-2)

COc1cc2oc(-c3cccc(NC(=O)c4cccc(C#N)c4)c3)cc(=O)c2c(OC)c1OC
≤ 46%: inhibition at 10 µM (SK-MEL-2)
active: inhibition (UO-31) | inhibition (K562) | inhibition (RPMI-8226) | inhibition (HOP-92) | inhibition (Hs-578T) | inhibition (HL-60) | inhibition (SR) | inhibition (CCRF-CEM) | inhibition (MOLT-4) | inhibition (SF-295) | inhibition (NCI-H522)
< 50%: inhibition at 10 µM (NCI-H23) | inhibition at 10 µM (EKVX) | inhibition at 10 µM (NCI-H226)

COc1cc2oc(-c3ccc(NC(=O)c4ccc([N+](=O)[O-])cc4)cc3)cc(=O)c2c(OC)c1OC
< 50%: inhibition at 10 µM (NCI-H23) | inhibition at 10 µM (EKVX) | inhibition at 10 µM (NCI-H226)
active: inhibition (UO-31) | inhibition (HOP-92) | inhibition (Hs-578T) | inhibition (SF-295) | inhibition (NCI-H522)

COc1cc2oc(-c3ccc(NC(=O)c4ccc(C#N)cc4)cc3)cc(=O)c2c(OC)c1OC
< 50%: inhibition at 10 µM (NCI-H23) | inhibition at 10 µM (EKVX) | inhibition at 10 µM (NCI-H226)
active: inhibition (UO-31) | inhibition (HOP-92) | inhibition (Hs-578T) | inhibition (SF-295) | inhibition (NCI-H522)

COC(=O)c1ccc(C(=O)Nc2cccc(-c3cc(=O)c4c(OC)c(OC)c(OC)cc4o3)c2)cc1
active: inhibition (UO-31) | inhibition (K562) | inhibition (RPMI-8226) | inhibition (HOP-92) | inhibition (Hs-578T) | inhibition (HL-60) | inhibition (SR) | inhibition (CCRF-CEM) | inhibition (MOLT-4) | inhibition (SF-295) | inhibition (NCI-H522)
< 50%: inhibition at 10 µM (NCI-H23) | inhibition at 10 µM (EKVX) | inhibition at 10 µM (NCI-H226)
≤ 46%: inhibition at 10 µM (SK-MEL-2)

COc1cc2oc(-c3cccc(NC(=O)c4ccc(C(F)(F)F)cc4)c3)cc(=O)c2c(OC)c1OC
active: inhibition (UO-31) | inhibition (K562) | inhibition (RPMI-8226) | inhibition (HOP-92) | inhibition (Hs-578T) | inhibition (HL-60) | inhibition (SR) | inhibition (CCRF-CEM) | inhibition (MOLT-4) | inhibition (SF-295) | inhibition (NCI-H522)
≤ 46%: inhibition at 10 µM (SK-MEL-2)
< 50%: inhibition at 10 µM (NCI-H23) | inhibition at 10 µM (EKVX) | inhibition at 10 µM (NCI-H226)
